The term Ki denotes the dissociation constant of the complex between target and ligand, obtained from inhibition or displacement. As usually defined, the inhibition is how much of the control response was suppressed.

The target of assay [1] is T1, MMP-11 (stromelysin-3, mST3) (Mus musculus, UniProt Q02853).
T1 construct: made in house; host or cells: E. coli
T1 sequence (Q02853 102-492): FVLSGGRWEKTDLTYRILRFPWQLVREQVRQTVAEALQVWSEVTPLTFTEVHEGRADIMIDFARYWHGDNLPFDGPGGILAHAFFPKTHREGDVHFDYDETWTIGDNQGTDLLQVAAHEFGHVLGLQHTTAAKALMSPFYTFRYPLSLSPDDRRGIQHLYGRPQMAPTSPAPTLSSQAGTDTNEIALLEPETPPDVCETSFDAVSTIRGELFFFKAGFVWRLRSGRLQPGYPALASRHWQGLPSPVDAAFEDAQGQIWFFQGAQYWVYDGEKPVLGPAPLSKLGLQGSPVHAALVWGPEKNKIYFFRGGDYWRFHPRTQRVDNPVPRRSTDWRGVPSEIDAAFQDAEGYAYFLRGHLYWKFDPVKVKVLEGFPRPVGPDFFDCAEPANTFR
In words: Ki determination with fluorogenic synthetic substrates, recombinant MMP-11. In kind it is biochemical, murine. The conditions noted are these: Tris/50 mM HCl buffer, pH 6.8, 10 mM CaCl2, 25° C.; read-out: affinity constant Ki, MMP-11 mST3. As for the experimental part: (§1) The MMPs used were produced in recombinant form, in an E. coli expression system, and then purified using different types of chromatographies. Apart from stromelysin-3 (MMP-11), the MMPs produces correspond to human sequences. The Stromelysin-3 used in this study corresponds to the murine form.
(§2) The activity of each MMP was determined using two fluorogenic synthetic substrates. The cutoff of said substrates, which generates a fluorescent signal proportional to the quantity of split substrate, enables a precise determination of the kinetic parameters. The affinity constants Ki were calculated using the equation of Horowitz et al, Proc. Natl. Acad. Sci. USA, 1987, 84, p. 6654-6658 [14], accounting for the dependency of the percentage of inhibition measured experimentally according to the concentration of inhibitor, as a function of the enzyme and substrate concentration.
(§3) The experiments for conducted in a Tris/50 mM HCl buffer, pH 6.8, 10 mM CaCl2, 25° C.

The target of another assay is T2, MMP-2 (Gel-A) (Homo sapiens, UniProt P08253).
T2 construct: made in house; host or cells: E. coli
T2 sequence (P08253 110-660): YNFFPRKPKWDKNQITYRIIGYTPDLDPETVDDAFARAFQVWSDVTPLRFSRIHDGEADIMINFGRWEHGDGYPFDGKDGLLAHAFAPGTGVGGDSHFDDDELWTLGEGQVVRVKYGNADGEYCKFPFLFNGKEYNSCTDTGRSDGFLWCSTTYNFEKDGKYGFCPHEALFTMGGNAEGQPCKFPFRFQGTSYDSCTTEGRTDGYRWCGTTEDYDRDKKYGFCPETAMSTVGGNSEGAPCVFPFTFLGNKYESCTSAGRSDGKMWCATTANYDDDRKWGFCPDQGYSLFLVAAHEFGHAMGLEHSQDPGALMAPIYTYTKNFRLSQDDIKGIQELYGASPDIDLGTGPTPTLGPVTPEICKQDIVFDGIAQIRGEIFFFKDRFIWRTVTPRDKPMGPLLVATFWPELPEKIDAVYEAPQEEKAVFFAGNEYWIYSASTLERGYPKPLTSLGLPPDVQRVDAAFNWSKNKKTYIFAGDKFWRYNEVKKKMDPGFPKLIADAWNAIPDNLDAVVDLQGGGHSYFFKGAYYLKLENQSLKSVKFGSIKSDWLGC
In words: Ki determination with fluorogenic synthetic substrates, recombinant MMP-2. In kind it is biochemical. The conditions noted are these: Tris/50 mM HCl buffer, pH 6.8, 10 mM CaCl2, 25° C.; read-out: affinity constant Ki, MMP-2 Gel-A. As for the experimental part: as §1, §2, §3

Another assay deals with T3, MMP-9 (Gel-B) (Homo sapiens, UniProt P14780).
T3 construct: made in house; host or cells: E. coli
T3 sequence (P14780 94-707): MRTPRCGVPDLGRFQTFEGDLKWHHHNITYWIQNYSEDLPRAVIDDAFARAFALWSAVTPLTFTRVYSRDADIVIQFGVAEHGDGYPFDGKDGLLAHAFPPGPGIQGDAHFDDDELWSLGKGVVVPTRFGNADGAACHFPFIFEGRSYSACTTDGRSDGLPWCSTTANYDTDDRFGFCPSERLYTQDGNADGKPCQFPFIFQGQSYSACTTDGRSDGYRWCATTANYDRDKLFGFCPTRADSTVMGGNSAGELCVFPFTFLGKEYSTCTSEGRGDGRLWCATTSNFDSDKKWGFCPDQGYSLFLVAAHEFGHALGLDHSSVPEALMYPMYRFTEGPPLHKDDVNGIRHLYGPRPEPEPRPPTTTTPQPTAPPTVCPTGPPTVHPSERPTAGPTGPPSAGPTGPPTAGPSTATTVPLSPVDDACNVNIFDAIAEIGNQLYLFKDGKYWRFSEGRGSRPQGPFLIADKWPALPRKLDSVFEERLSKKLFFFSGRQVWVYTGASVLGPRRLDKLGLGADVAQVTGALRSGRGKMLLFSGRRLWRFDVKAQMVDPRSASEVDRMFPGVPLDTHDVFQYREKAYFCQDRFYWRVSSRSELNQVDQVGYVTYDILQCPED
In words: Ki determination with fluorogenic synthetic substrates, recombinant MMP-9. In kind it is biochemical. The conditions noted are these: Tris/50 mM HCl buffer, pH 6.8, 10 mM CaCl2, 25° C.; read-out: affinity constant Ki, MMP-9 Gel-B. As for the experimental part:
as §1, §2, §3

Another assay concerns the target T4, MMP-14 (MT1-MMP) (Homo sapiens, UniProt P50281).
T4 construct: made in house; host or cells: E. coli
Briefly: Ki determination with fluorogenic synthetic substrates, recombinant MMP-14. In kind it is biochemical. The conditions noted are these: Tris/50 mM HCl buffer, pH 6.8, 10 mM CaCl2, 25° C.; read-out: affinity constant Ki, MMP-14 MT1-MMP. As for the experimental part:
as §1, §2, §3

The next assay has as its target T5, MMP-1 (HFC) (Homo sapiens, UniProt P03956).
T5 construct: made in house; host or cells: E. coli
T5 sequence (P03956 100-469): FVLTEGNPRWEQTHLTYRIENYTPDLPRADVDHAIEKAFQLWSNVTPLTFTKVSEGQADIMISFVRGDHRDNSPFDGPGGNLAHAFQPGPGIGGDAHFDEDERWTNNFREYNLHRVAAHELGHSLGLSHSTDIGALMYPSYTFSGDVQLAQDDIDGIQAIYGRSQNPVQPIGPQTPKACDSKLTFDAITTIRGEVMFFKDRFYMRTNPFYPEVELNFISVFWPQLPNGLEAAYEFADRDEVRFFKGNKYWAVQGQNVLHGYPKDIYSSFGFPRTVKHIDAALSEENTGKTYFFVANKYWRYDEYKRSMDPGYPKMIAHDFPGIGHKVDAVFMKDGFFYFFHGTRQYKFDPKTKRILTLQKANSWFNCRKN
Briefly: Ki determination with fluorogenic synthetic substrates, recombinant MMP-1. In kind it is biochemical. The conditions noted are these: for inhibition at 1 µM: @ 1 μM inhibitor, read-out: percentage of inhibition, MMP-1. As for the experimental part:
as §1, §2, §3

For the next assay, the target named is T6, MMP-7 (Matrilysin) (Homo sapiens, UniProt P09237).
T6 construct: made in house; host or cells: E. coli
T6 sequence (P09237 95-267): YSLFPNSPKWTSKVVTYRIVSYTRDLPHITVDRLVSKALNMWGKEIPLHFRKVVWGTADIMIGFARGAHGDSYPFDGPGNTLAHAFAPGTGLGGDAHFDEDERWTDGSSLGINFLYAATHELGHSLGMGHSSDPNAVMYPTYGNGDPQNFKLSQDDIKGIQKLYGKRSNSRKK
In words: Ki determination with fluorogenic synthetic substrates, recombinant MMP-7. In kind it is biochemical. The conditions noted are these: for Ki: Tris/50 mM HCl buffer, pH 6.8, 10 mM CaCl2, 25° C., read-out: affinity constant Ki, MMP-7 Matrilysin; for inhibition at 1 µM: @ 1 μM inhibitor, read-out: percentage of inhibition, MMP-7. The protocol: as §1, §2, §3

For a further assay, the target named is T7, MMP-8 (HNC) (Homo sapiens, UniProt P22894).
T7 construct: made in house; host or cells: E. coli
T7 sequence (P22894 101-467): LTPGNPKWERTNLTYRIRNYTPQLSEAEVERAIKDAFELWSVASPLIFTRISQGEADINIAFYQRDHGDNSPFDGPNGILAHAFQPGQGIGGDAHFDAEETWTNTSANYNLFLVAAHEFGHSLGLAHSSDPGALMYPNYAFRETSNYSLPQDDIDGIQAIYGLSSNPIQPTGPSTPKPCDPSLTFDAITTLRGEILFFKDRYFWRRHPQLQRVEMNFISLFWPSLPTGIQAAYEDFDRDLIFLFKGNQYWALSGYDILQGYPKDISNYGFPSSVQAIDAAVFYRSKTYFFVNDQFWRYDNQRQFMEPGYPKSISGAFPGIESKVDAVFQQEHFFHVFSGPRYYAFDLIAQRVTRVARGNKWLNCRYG
Briefly: Ki determination with fluorogenic synthetic substrates, recombinant MMP-8. In kind it is biochemical. The conditions noted are these: Tris/50 mM HCl buffer, pH 6.8, 10 mM CaCl2, 25° C.; read-out: affinity constant Ki, MMP-8 HNC. The protocol:
as §1, §2, §3

Take `NC(=O)C(Cc1c[nH]c2ccccc12)NC(=O)C(CCCc1ccccc1)CP(=O)(O)C(Cc1ccccc1)NC(=O)c1ccc2ccccc2n1` (stereo not drawn) [Compound 32]: the Ki in assay [1] worked out at 4.2 nM; at MMP-2 (Gel-A), 19 nM; at MMP-9 (Gel-B) it was 13 nM; at MMP-14 (MT1-MMP), 60 nM; on MMP-7 (Matrilysin) it was 370 nM; on MMP-8 (HNC) it was 5 nM. In addition, the inhibition at 1 µM at MMP-1 (HFC) is 78%.

Regarding `CC(C)CC(NC(=O)OCc1ccccc1)C(=O)NC(Cc1ccccc1)P(=O)(O)CC(CCCc1ccccc1)C(=O)NC(Cc1c[nH]c2ccccc12)C(N)=O` (stereo not drawn) [Compound 35], the inhibition constant (Ki) in assay [1] stood at 6 nM; on MMP-2 (Gel-A), 40 nM; at MMP-9 (Gel-B), 22 nM; at MMP-14 (MT1-MMP) it was 53 nM; on MMP-8 (HNC) it was 7 nM. Besides, the inhibition at 1 µM was 20% at MMP-1 (HFC) and 32% on MMP-7 (Matrilysin).

For `NC(=O)C(Cc1c[nH]c2ccccc12)NC(=O)C(CCCc1ccccc1)CP(=O)(O)C(Cc1ccccc1)NC(=O)CNc1ccccc1` (stereo not drawn) [Compound 27], the inhibition constant (Ki) was found to be 15 nM in assay [1]; 17 nM on MMP-2 (Gel-A); 6 nM on MMP-9 (Gel-B); 73 nM on MMP-14 (MT1-MMP); 4.5 nM at MMP-8 (HNC). The figures for the inhibition at 1 µM on MMP-1 (HFC) and at MMP-7 (Matrilysin) were 33% and 16%, respectively.

`NC(=O)C(Cc1c[nH]c2ccccc12)NC(=O)C(CCCc1ccccc1)CP(=O)(O)C(Cc1ccccc1)NC(=O)c1cc2cc(Cl)cc(Cl)c2oc1=O` (stereo not drawn) [Compound 33]: the inhibition constant (Ki) in assay [1] was determined as 5 nM; on MMP-2 (Gel-A), 100 nM; at MMP-9 (Gel-B), 110 nM; on MMP-14 (MT1-MMP) it was 217 nM; at MMP-8 (HNC), 17 nM. Moreover, the inhibition at 1 µM amounted to 47% on MMP-1 (HFC) and 37% on MMP-7 (Matrilysin).

As for `NC(=O)C(Cc1c[nH]c2ccccc12)NC(=O)C(CCCc1ccccc1)CP(=O)(O)C(Cc1ccccc1)NC(=O)COCc1ccccc1` (stereo not drawn) [Compound 26], the Ki in assay [1] was found to be 5 nM; at MMP-2 (Gel-A) it was 8 nM; on MMP-9 (Gel-B), 10 nM; at MMP-14 (MT1-MMP), 40 nM; at MMP-8 (HNC) it was 2.5 nM. In addition, the values for the inhibition at 1 µM on MMP-1 (HFC) and at MMP-7 (Matrilysin) were 28% and 33%, respectively.

As to `CC(C)CC(CP(=O)(O)C(Cc1ccccc1)NC(=O)OCc1ccccc1)C(=O)NC(Cc1c[nH]c2ccccc12)C(N)=O` (stereo not drawn) [Compound 13], the Ki was 22 nM in assay [1]; 202 nM at MMP-2 (Gel-A); 65 nM at MMP-9 (Gel-B); 192 nM on MMP-14 (MT1-MMP); 210 nM at MMP-7 (Matrilysin); 40 nM at MMP-8 (HNC). At MMP-1 (HFC) (@ 2 mM inhibitor), the “percentage of inhibition, MMP-1” value is reported as 45% @ 2 mM.
